Source: patent US5916915A, “Water-in-stable L-ascorbic acid derivative and a method for preparation thereof, and a skin-whitening cosmetic composition containing the same” (priority 1997, dated 1999)
“Also recorded” adds a separate entry of the source.

Key:
[1] = Acute Dermal Toxicity Test; format: in vivo, ICR mice; settings: mouse, in vivo, topical or ocular, acute dermal, ICR mice, Litchfield-Wilcoxon's method; read-out: LD50 (lethal dose)
Experimental: (§1) 4 ml/kg of AsA-APPA of Preparation Ex. 2 was diluted with physiological saline to give 50% of test sample. This test sample was percutaneously administrated into the ten(10) of ICR mice(five males and five females) weighing 20~33 g (administrated amount of AsA-APPA: 2 g/kgweight). As a control, 4 ml/kg of physiological saline was percutaneously administrated into the ten(10) of ICR mice(five males and five females) weighing 20~33 g (administrated amount of AsA-APPA: 0 g/kgweight).
(§2) Before about 24 hours, the back of each mouce was depilated in a size of 1.5×1.5 cm^2. Then, each depilated site was covered with a gauze of 1×1 cm^2 applied with one of the test and control samples, and fixed using an non-irritative tape, for 24 hours.
(§3) At that day, general appearance was observed every hour for 6 hours. And, from the next day to 14 days, every day, were observed general appearance(clinical symptoms), toxic symptoms, death and the like. Further, change of weights was measured at 1, 3, 7 and 14 days.
(§4) Any of the mice dead during observation period were immediately subjected to autopsy, and the survival mice were subjected to autopsy after observation period.

ICR mice [2] = assay: Acute Dermal Toxicity Test; format: in vivo
Experimental: as §1, §2, §3, §4

skin of healthy females [3] = assay: Repeat Insult Human Patch Test; format: in vivo
Experimental: Test was carried out for twenty(20) of healthy females aging 20~30 years according to CTFA Guideline(The Cosmetic, Toiletry and Fragrance Association. Inc. Washington, D.C., 20023, 1991).
The back of the subjected was washed with 70% of propanol and dried, and then, applied with a finn chamber containing 20 μl of patch base incorporating 10% of AsA-APPA of Preparation Ex. 2. Applications were repeated every 24 hours for 3 weeks (Induction Period). After about 2 weeks, Challenge Insult Patch was carried out. At this step, the sites tested during the induction period and new sites were applied with the patches for 48 hours. […] And, skin irritation was evaluated according to ICDRG(International Contact Dermatitis Research Group)'s criterion.

[4] = system: eye of New Zealand White rabbits; assay: Eye Irritation Test; format: in vivo; settings: rabbit
Experimental: Test was carried out using the nine(9) of New Zealand White rabbits.
0.1 ml of AsA-APPA of Preparation Ex. 2 was diluted with physiological saline to give 10% of test sample. This test sample was dropped onto the right eye of each rabbit, taking the left eye as a control. After 20~30 seconds, only three(3) rabbits of them were washed sufficiently with the sterilized saline.

Acute Oral Toxicity Test = format: in vivo, ICR mice; settings: mouse, in vivo, po, acute oral, ICR mice, Litchfield-Wilcoxon's method; read-out: LD50 (lethal dose)
Experimental: as §1, with “10 ml/kg” for “4 ml/kg”, “was orally” for “was percutaneously”, “AsA-APPA: 5” for “AsA-APPA: 2”, “control, 10” for “control, 4”
(§5) At that day, general appearance was observed every hour for 6 hours. And, from the next day to 14 days, every day, were observed general appearance(clinical symptoms), toxic symptoms, death and the like. Further, change of weight was measured at 1, 3, 7 and 14 days.
as §4

ICR mice [5] = assay: Acute Oral Toxicity Test; format: in vivo
Experimental: as §1, with “10 ml/kg” for “4 ml/kg”, “was orally” for “was percutaneously”, “AsA-APPA: 5” for “AsA-APPA: 2”, “control, 10” for “control, 4”
as §5, §4

skin of healthy females [6] = assay: Human Patch Test; format: in vivo
Experimental: Test was carried out for thirty(30) of healthy females aging 20~30 years according to CTFA Guideline(The Cosmetic, Toiletry and Fragrance Association. Inc. Washington, D.C., 20023, 1991).
The back of the subjected was washed with 70% of ethanol and dried, and then, applied with a finn chamber containing 20 μl of patch base incorporating 10% of AsA-APPA of Preparation Ex. 2. The finn chamber was fixed to the tested site using a micropore tape. 24 hours later, the tape and the chamber were removed, and the tested site was marked with marking pen. After 24 hours or 48 hours, skin responses of the tested sites were observed and skin irritation were evaluated according to ICDRG(International Contact Dermatitis Research Group)'s criterion.
*Average Response = Grade of the sample/4(Maximum grade) × 30(Total

[7] = Stability of AsA-APPA in pH 7 buffer at 50° C. (residual ratio by UV absorbance); format: physicochemical
Experimental: L-Ascorbic acid and AsA-APPA produced in Preparation Ex. 2 were dissolved in buffer solutions of pH 7 to concentrations of 50 μM, respectively, and then maintained in a thermostat of 50° C. At constant intervals, UV absorbances were measured at 259 nm for AsA-APPA and at 266 nm for L-ascorbic acid, to evaluate the stabilities of the test samples as residual ratio(%).

[8] = system: skin of New Zealand White male rabbits; assay: Primary Skin Irritation Test; format: in vivo; settings: rabbit
Experimental: Test was carried out for twelve(12) of New Zealand White male rabbits whose backs were depilated before 24 hours. And, 0.1 ml of AsA-APPA of Preparation Ex. 2 was diluted with physiological saline to give 50% of test sample.
The test sample was applied to two sites (2.5 cm×2.5 cm) of the right back (amount of AsA-APPA per site: 0.5 ml). As a control, two sites (2.5 cm×2.5 cm) of the left back were treated with 1.0 ml of physiological saline. Each tested site was covered with a gauze, which was fixed using an non-irritative tape. 24 Hours later, the tested sites were washed with physiological saline.

skin of Guinea pigs = assay: Skin Sensitization Test (Guinea Pig Maximization test); format: in vivo, Guinea pigs (Hartley Albino Guinea Pig)
Experimental: Test was carried out for six(6)(three males and three females) of Guinea pigs(Hartley Albino Guinea Pig) weighing 300~360 g according to Maggnusson and Kligman's procedure (Guinea Pig Maximization test).
In order to determine the concentrations of the test samples to be applied in Induction test for light irritation and Challenge test for no irritation, for three(3) of Guinea pigs for each test, primary irritations were taken with 6.25%, 12.5% and 25.0% of the test samples, respectively. For each animal, each site (2.5×2.5 cm) of right and left of the back was treated with three concentrations of the test samples in an amount of 0.5 ml/site of AsA-APPA, and then covered with a gauze, which was fixed using an non-irritative tape, for 24 hours. Next, 0.1 ml of 25% of AsA-APPA was intradermally injected to each of two pigs(one male and one female) using 26-gauge 1/2-inched needle. 7 Days later, the same sites were depilated and pretreated with 10% of SLS in petrolatum. Then, each tested site was treated with 0.5 ml/site of AsA-APPA, and then covered with a gauze, which was fixed using an non-irritative tape, for 48 hours. 2 Weeks later, the left back of the depilated pig was treated with the test sample and the right back was treated with physiological saline. 24 Hours later, the tested sites were washed with physiological saline.
As a control, test was carried out using physiological saline, instead of the test sample, in the same procedure.

fibroblast = assay: Proliferation of fibroblast (MTT method); format: cell-based; settings: as low as, DMEM
Experimental: The skin obtained from new epidermal tissue was treated with Type 1 collagenase to remove epidermis. The obtained fibroblast was cultured on Dulbecco's Modified Eagle's Media(DMEM).
Amount of fibroblast was measured by way of MTT method.

[9] = Stability in an aqueous base: precipitation and discoloration; format: physicochemical; set-up: key: -: No precipitation; +: Slight precipitation; ++: Some precipitation; +++: Severe precipitation; settings: 3 g in 100 ml water
Experimental: Each 3 g of compounds of Preparation Ex. 3 and Ex. 6 and L-ascorbic acid 2-phosphate magnesium was dissolved in 100 ml of distilled water, and then maintained in a thermostat of 50° C. for 30 minutes.
Colorless or pale-yellow
+++ Severe precipitation

[10] = 10% AsA-APPA, text and Table 5, unit not given

NCCCOP(=O)(O)OC1=C(O)[C@@H]([C@@H](O)CO)OC1=O [AsA-APPA, 2-(3-aminopropanephosphoric acid)-L-ascorbate]
LD50 at 336 h [1]: 2000 mg/kg | Evaluation (ICR mice [2]; Acute dermal toxicity test): Innoxious | LD50 (lethal dose) (ICR mice [2]; acute dermal, ICR mice, Litchfield-Wilcoxon's method, 20160 min): > 2000 mg/kg | autopsy findings (ICR mice [2]; percutaneous, 2 g/kg): no abnormal symptom was observed | weight changes in comparison to the control (ICR mice [2]; percutaneous, 2 g/kg, 1, 3, 7 and 14 days): no significant difference | death (ICR mice [2]; percutaneous, 2 g/kg, 14 days): no dead mice | Evaluation of repeat insult human patch test (skin of healthy females [3]; 10% AsA-APPA): No irritative | repeat irritation or sensitive irritation (skin of healthy females [3]; 10% AsA-APPA): no repeat irritation or no sensitive irritation was observed | Average response, challenge period (skin of healthy females [3]; 10% AsA-APPA, unit not given): 0 | Average response, induction period (skin of healthy females [3]; [10]): 0.14 | Average response, challenge period (skin of healthy females [3]; n = 20, 10% AsA-APPA, Table 4): 0% | Average response, induction period (skin of healthy females [3]; n = 20, 10% AsA-APPA, Table 4): 0.14% | Induction Period response (skin of healthy females [3]; week 1, 10% AsA-APPA): 1 | Evaluation of eye irritation [4]: No irritative | eye irritation on cornea, iris and conjunctiva ([4]; after 24 hours or 48 hours, 10% test sample): no eye irritation on cornea, iris and conjunctiva was observed | Irritation rate of eye mucos (M.O.I) ([4]; washed and non-washed cases): 0 | LD50 at 336 h (Acute Oral Toxicity Test): 5000 mg/kg | Evaluation (ICR mice [5]; Acute oral toxicity test): Innoxious | LD50 (lethal dose) (ICR mice [5]; acute oral, ICR mice, Litchfield-Wilcoxon's method, 20160 min): > 5000 mg/kg | autopsy findings (ICR mice [5]; oral, 5 g/kg): no abnormal symptom was observed | weight changes in comparison to the control (ICR mice [5]; oral, 5 g/kg, 1, 3, 7 and 14 days): no significant difference | death (ICR mice [5]; oral, 5 g/kg, 14 days): no dead mice | Evaluation of human patch test (skin of healthy females [6]; 10% AsA-APPA): primary irritative response, except for 1% of erythema, was hardly observed; also recorded: No irritative | Average response (skin of healthy females [6]; [10]): 0.42 | Response (skin of healthy females [6]; 24 hr., N = 30, 10% AsA-APPA, erythema): 1% | irritation after 48 hours (skin of healthy females [6]; 48 hours, 10% AsA-APPA): all the irritation fade away | Response (skin of healthy females [6]; 48 hr., N = 30, 10% AsA-APPA): 0% | Average response (skin of healthy females [6]; N = 30, 10% AsA-APPA, Table 3): 0.42% | stability in neutral aqueous solution ([7]; pH 7, 50° C.): very stable | remaining at 0.5 h, 50 µM ([7]; ph 7 buffer, 30 min., pH 7, 50 μM, 50° C.): 100% | remaining at 1 h, 50 µM ([7]; ph 7 buffer, 1 hr., pH 7, 50 μM, 50° C.): 100% | remaining at 3 h, 50 µM ([7]; ph 7 buffer, 3 hr., pH 7, 50 μM, 50° C.): 100% | remaining at 6 h, 50 µM ([7]; ph 7 buffer, 6 hr., pH 7, 50 μM, 50° C.): 100% | remaining at 24 h, 50 µM ([7]; ph 7 buffer, 24 hr., pH 7, 50 μM, 50° C.): 99.1% | remaining at 144 h, 50 µM ([7]; ph 7 buffer, 6 days, pH 7, 50 μM, 50° C.): 95.5% | remaining at 240 h, 50 µM ([7]; ph 7 buffer, 10 days, pH 7, 50 μM, 50° C.): 93.5% | Evaluation of primary skin irritation [8]: non-irritative or very low-irritative | skin abnormality such as erythema and edema ([8]; 24 or 72 hours after removing the patches): no skin abnormality such as erythema and edema was observed | Draize's PII (Primary Irritation Index) ([8]; due to erythema): 0.13 | Evaluation of skin sensitization (skin of Guinea pigs; Guinea pig): very safe to the skin | skin abnormality such as erythema and edema (skin of Guinea pigs; Guinea pig, 24, 48 and 72 hours after removing the patches): no skin abnormality such as erythema and edema was observed | Kligman's grade (skin of Guinea pigs; Guinea pig, Kligman's criterion): 1 | concentration showing effective fibroblast proliferation (fibroblast): 10 mM

O=C1O[C@H]([C@@H](O)CO)C(O)=C1O [L-ascorbic acid]
time to decomposition ([7]; about, neutral aqueous solution, 50° C.): ≤ 1 h

NCCCOP(=O)(O)OC1=C(O)[C@@H]([C@@H](O)CO)OC1=O [Prep. Ex. 3]
Precipitation ([9]; day 1): - | Precipitation ([9]; day 3): - | Precipitation ([9]; day 5): - | Precipitation ([9]; day 7): - | Precipitation ([9]; day 9): - | Precipitation ([9]; day 11): - | Precipitation ([9]; day 13): - | Precipitation ([9]; day 15): - | Precipitation ([9]; day 30): -

O=C1O[C@H]([C@@H](O)CO)C(O)=C1OP(=O)([O-])[O-].[Mg+2] [compound 1, L-ascorbic acid 2-phosphate magnesium, reference compound]
Precipitation ([9]; day 1): - | Precipitation ([9]; day 3): + | Precipitation ([9]; day 5): + | Precipitation ([9]; day 7): ++ | Precipitation ([9]; day 9): ++ | Precipitation ([9]; day 11): ++ | Precipitation ([9]; day 13): +++ | Precipitation ([9]; day 15): +++ | Precipitation ([9]; day 30): +++
